{
  "source": "paper PMC8683641",
  "about": "(Journal of medicinal chemistry, 2021)",
  "key": {"[1]": {"target": "hCB2 Cannabinoid Receptors (Homo sapiens, UniProt P34972)", "sequence (P34972 whole entry)": "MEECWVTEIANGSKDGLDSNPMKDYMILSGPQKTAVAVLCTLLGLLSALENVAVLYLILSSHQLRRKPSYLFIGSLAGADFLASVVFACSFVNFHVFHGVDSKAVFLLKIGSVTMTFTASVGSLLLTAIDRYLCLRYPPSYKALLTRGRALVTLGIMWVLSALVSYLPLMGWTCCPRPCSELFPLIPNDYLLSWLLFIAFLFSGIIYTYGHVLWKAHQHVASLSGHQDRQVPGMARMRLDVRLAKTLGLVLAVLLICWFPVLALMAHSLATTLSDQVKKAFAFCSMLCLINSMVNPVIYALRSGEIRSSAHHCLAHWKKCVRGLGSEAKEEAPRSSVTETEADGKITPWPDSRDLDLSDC", "assay": "[35S]GTPγS binding assay for efficacy, CHO-hCB2 membranes", "format": "biochemical", "details": "from [35S]GTPγS binding"}, "hCB2 [2]": {"test_system": "hCB2", "format": "binding, human", "details": "Ki hCB1 / Ki hCB2"}, "hCB2 [3]": {"test_system": "hCB2", "details": "literature values; cited from earlier work"}, "hCB1": {"target": "hCB1 (Homo sapiens, UniProt P21554)", "sequence (P21554 whole entry)": "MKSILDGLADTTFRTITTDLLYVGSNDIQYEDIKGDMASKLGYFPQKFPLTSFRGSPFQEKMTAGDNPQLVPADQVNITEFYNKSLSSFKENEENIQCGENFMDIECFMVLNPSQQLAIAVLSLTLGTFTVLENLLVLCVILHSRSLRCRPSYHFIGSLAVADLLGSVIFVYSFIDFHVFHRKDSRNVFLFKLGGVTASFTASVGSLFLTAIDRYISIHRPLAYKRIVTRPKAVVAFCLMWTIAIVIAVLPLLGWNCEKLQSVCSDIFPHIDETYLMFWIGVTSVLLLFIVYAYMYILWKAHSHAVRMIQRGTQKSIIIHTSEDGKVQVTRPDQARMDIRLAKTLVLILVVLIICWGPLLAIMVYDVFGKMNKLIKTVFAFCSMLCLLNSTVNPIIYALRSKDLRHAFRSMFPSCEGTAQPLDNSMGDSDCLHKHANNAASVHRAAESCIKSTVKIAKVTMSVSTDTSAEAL", "format": "binding", "details": "propyl tail versus pentyl"}},
  "data": [
    {"smiles": "CCCCCn1cc(C(=O)c2ccc3c(c2)CC(C)(C)C3)c2ccccc21", "note": "[GBD-003, (2,2-Dimethyl-2,3-dihydro-1H-inden-5-yl) (1-pentyl-1H-indol-3-yl)methanone]", "values": [
      {"measurement": "functional characterization at hCB2", "setting": "[1]", "value": "CB2R antagonist"}
    ]},
    {"smiles": "C#CCCCn1cc(C(=O)c2ccc3c(c2)CC(C)(C)C3)c2ccccc21", "note": "[GBD-014, (2,2-Dimethyl-2,3-dihydro-1H-inden-5-yl) (1-(pent-4-yn-1-yl)-1H-indol-3-yl)methanone]", "values": [
      {"measurement": "functional characterization at hCB2", "setting": "[1]; listed as 35", "value": "neutral antagonists"}
    ]},
    {"smiles": "CCCCCn1cc(C(=O)c2cccc3c2CC(C)(C)C3)c2ccccc21", "note": "[GBD-002, (2,2-dimethyl-2,3-dihydro-1H-inden-4-yl) (1-pentyl-1H-indol-3-yl)methanone]", "values": [
      {"measurement": "functional characterization at hCB2", "setting": "[1]", "value": "full agonist"}
    ]},
    {"smiles": "C=CCCCn1cc(C(=O)c2ccc3c(c2)CC(C)(C)C3)c2ccccc21", "note": "[GBD-013, (2,2-Dimethyl-2,3-dihydro-1H-inden-5-yl) (1-(pent-4-en-1-yl)-1H-indol-3-yl)methanone]", "values": [
      {"measurement": "selectivity index (SI) for CB2", "setting": "hCB2 [2]", "value": 10}
    ]},
    {"smiles": "C#CCCCn1c(C)c(C(=O)c2ccc3c(c2)CC(C)(C)C3)c2ccccc21", "note": "[GBD-029, (2,2-Dimethyl-2,3-dihydro-1H-inden-5-yl) (2-methyl-1-(pent-4-yn-1-yl)-1H-indol-3-yl)methanone]", "values": [
      {"measurement": "functional characterization at hCB2", "setting": "[1]; listed as 49", "value": "agonist"}
    ]},
    {"smiles": "CCCn1cc(C(=O)c2cccc3ccccc23)c2ccccc21", "note": "[JWH-072]", "values": [
      {"measurement": "SI (CB2 selectivity)", "setting": "hCB2 [3]", "value": 6}
    ]},
    {"smiles": "CCCn1cc(C(=O)c2ccc3c(c2)CC(C)(C)C3)c2ccccc21", "note": "[GBD-005, (2,2-dimethyl-2,3-dihydro-1H-inden-5-yl) (1-propyl-1H-indol-3-yl)methanone]", "values": [
      {"measurement": "reduction in CB1R affinity", "setting": "hCB1", "value": "> 60", "unit": "fold"},
      {"measurement": "functional characterization at hCB2", "setting": "[1]", "value": "neutral antagonists"}
    ]},
    {"smiles": "CCCn1c(C)c(C(=O)c2cccc3ccccc23)c2ccccc21", "note": "[JWH-015]", "values": [
      {"measurement": "SI (CB2 selectivity)", "setting": "hCB2 [3]", "value": 24}
    ]}
  ]
}
